Assay results taken from PubChem BioAssay AID248 (DTP/NCI, 2004).
Values joined by “and” are separate entries in the source; they are usually repeats but may differ in a detail not shown here. Identical values can stand only once. Inconclusive results and toxic doses are left out. Rule as the data show it: active = T/C of 150% or more; inactive = T/C below 125%.

Test system: L1210 leukemia ip in BDF1 mice, survival T/C
Assay: NCI In Vivo Anticancer Drug Screen. Data for tumor model L1210 Leukemia (intraperitoneal) in B6D2F1 (BDF1) mice
Settings: endpoint: mean survival time, higher = longer survival
Summary of the method: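 Antitumor effect is assessed in tumor-bearing animals. Survival in the compound arm is compared with a vehicle-dosed control arm and expressed as their quotient.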

[1] = dose: 100.0 mg/kg/injection, schedule: Q01DX009 (ip), vehicle: Klucel (hydroxypropylcellulose) (HPC)
[2] = dose: 100.0 mg/kg/injection, schedule: Q04DX003 (ip), vehicle: saline
[3] = dose: 200.0 mg/kg/injection, schedule: Q01DX009 (ip), vehicle: Klucel (hydroxypropylcellulose) (HPC)
[4] = dose: 100.0 mg/kg/injection, schedule: Q04DX003 (ip), vehicle: Klucel (hydroxypropylcellulose) (HPC)
[5] = dose: 200.0 mg/kg/injection, schedule: Q04DX003 (ip), vehicle: Klucel (hydroxypropylcellulose) (HPC)
[6] = dose: 400.0 mg/kg/injection, schedule: Q04DX003 (ip), vehicle: Klucel (hydroxypropylcellulose) (HPC)
[7] = dose: 100.0 mg/kg/injection, schedule: Q01DX001 (ip), vehicle: saline
[8] = dose: 200.0 mg/kg/injection, schedule: Q01DX001 (ip), vehicle: saline
[9] = dose: 400.0 mg/kg/injection, schedule: Q01DX001 (ip), vehicle: saline
[10] = dose: 100.0 mg/kg/injection, schedule: Q04DX003 (ip), vehicle: saline with Tween-80
[11] = dose: 200.0 mg/kg/injection, schedule: Q04DX003 (ip), vehicle: saline with Tween-80
[12] = dose: 400.0 mg/kg/injection, schedule: Q04DX003 (ip), vehicle: saline with Tween-80

Measured: T/C

Cc1cc2c(cc1C)NC(C)CC(=O)N2 (configuration not stated)
inactive: dose: 25.0 mg/kg/injection, schedule: Q01DX009 (ip), vehicle: Klucel (hydroxypropylcellulose) (HPC) 109 % of control | dose: 50.0 mg/kg/injection, schedule: Q01DX009 (ip), vehicle: Klucel (hydroxypropylcellulose) (HPC) 98 % of control | [1] 104 % of control | dose: 100.0 mg/kg/injection, schedule: Q01DX009 (ip), vehicle: saline 111 % of control | [2] 96 % of control | dose: 133.0 mg/kg/injection, schedule: Q01DX009 (ip), vehicle: Klucel (hydroxypropylcellulose) (HPC) 99 % of control | [3] 94 % of control and 124 % of control | dose: 200.0 mg/kg/injection, schedule: Q04DX003 (ip), vehicle: saline 108 % of control | dose: 400.0 mg/kg/injection, schedule: Q04DX003 (ip), vehicle: saline 105 % of control

CC1(C)C2CCC1(C)C(c1ccc(O)cc1)C2 (configuration not stated)
inactive: [4] 104 % of control | [5] 101 % of control | [6] 102 % of control

NC(=O)c1ccncc1
inactive: [7] 105 % of control | [8] 104 % of control | [9] 98 % of control

Cc1ccc2c(c1N)C(=O)c1ccccc1C2=O
inactive: dose: 100.0 mg/kg/injection, schedule: Q01DX001 (ip), vehicle: carboxymethylcellulose (CMC) 103 % of control | dose: 200.0 mg/kg/injection, schedule: Q01DX001 (ip), vehicle: carboxymethylcellulose (CMC) 92 % of control | dose: 400.0 mg/kg/injection, schedule: Q01DX001 (ip), vehicle: carboxymethylcellulose (CMC) 96 % of control

O=C(OCCCOC(=O)c1cccc([N+](=O)[O-])c1)c1cccc([N+](=O)[O-])c1
inactive: dose: 100.0 mg/kg/injection, schedule: Q01DX001 (ip), vehicle: other 101 % of control | dose: 200.0 mg/kg/injection, schedule: Q01DX001 (ip), vehicle: other 98 % of control | dose: 400.0 mg/kg/injection, schedule: Q01DX001 (ip), vehicle: other 102 % of control

CN(C)c1ccc(C=Nc2cc([N+](=O)[O-])ccc2O)cc1
inactive: [7] 96 % of control | [8] 92 % of control | [9] 91 % of control

O=C1CCCCCCCCCCC1Br (configuration not stated)
inactive: dose: 100.0 mg/kg/injection, schedule: Q01DX009 (ip), vehicle: saline with Tween-80 110 % of control | [10] 92 % of control | dose: 200.0 mg/kg/injection, schedule: Q01DX009 (ip), vehicle: saline with Tween-80 95 % of control | [11] 87 % of control | dose: 400.0 mg/kg/injection, schedule: Q01DX009 (ip), vehicle: saline with Tween-80 87 % of control | [12] 92 % of control

CCCCN/C(C)=C/C(=O)/C=C(\C)NCCCC
inactive: [1] 94 % of control | [4] 117 % of control | [3] 110 % of control | [5] 96 % of control | dose: 400.0 mg/kg/injection, schedule: Q01DX009 (ip), vehicle: Klucel (hydroxypropylcellulose) (HPC) 95 % of control | [6] 100 % of control

CN(N=O)C(=O)NCCSc1nc2ncncc2[nH]1
inactive: dose: 31.0 mg/kg/injection, schedule: Q01DX001 (ip), vehicle: carboxymethylcellulose (CMC) 87 % of control | dose: 62.0 mg/kg/injection, schedule: Q01DX001 (ip), vehicle: carboxymethylcellulose (CMC) 103 % of control | dose: 93.0 mg/kg/injection, schedule: Q01DX001 (ip), vehicle: carboxymethylcellulose (CMC) 106 % of control | dose: 187.0 mg/kg/injection, schedule: Q01DX001 (ip), vehicle: carboxymethylcellulose (CMC) 103 % of control | dose: 250.0 mg/kg/injection, schedule: Q01DX001 (ip), vehicle: carboxymethylcellulose (CMC) 103 % of control | dose: 500.0 mg/kg/injection, schedule: Q01DX001 (ip), vehicle: carboxymethylcellulose (CMC) 115 % of control | dose: 750.0 mg/kg/injection, schedule: Q01DX001 (ip), vehicle: carboxymethylcellulose (CMC) 123 % of control | dose: 1000.0 mg/kg/injection, schedule: Q01DX001 (ip), vehicle: carboxymethylcellulose (CMC) 117 % of control

Cc1cc(C)cc(OCC2C(COC(=O)c3cccc(Cl)c3)c3ccccc3N2C)c1 (configuration not stated)
inactive: [1] 89 % of control | [3] 94 % of control

CC(C)N(C(=O)/C=C/C(=O)N(C(C)C)C(C)C)C(C)C
inactive: dose: 25.0 mg/kg/injection, schedule: Q04DX003 (ip), vehicle: saline 92 % of control | dose: 50.0 mg/kg/injection, schedule: Q04DX003 (ip), vehicle: saline 95 % of control | [10] 100 % of control | [2] 98 % of control | [11] 96 % of control

COC1=C(Cl)C(OC)(OC)C(Cl)=C1Cl
inactive: dose: 75.0 mg/kg/injection, schedule: Q01DX001 (ip), vehicle: carboxymethylcellulose (CMC) 107 % of control | dose: 150.0 mg/kg/injection, schedule: Q01DX001 (ip), vehicle: carboxymethylcellulose (CMC) 102 % of control | dose: 300.0 mg/kg/injection, schedule: Q01DX001 (ip), vehicle: carboxymethylcellulose (CMC) 104 % of control

COC(=O)c1ccccc1N(C)C(=O)c1ccccc1
inactive: [4] 102 % of control | [5] 107 % of control | [6] 109 % of control

CCOP(=S)(OCC)S/C(C(=O)NC)=C(/C)O
inactive: dose: 6.25 mg/kg/injection, schedule: Q01DX009 (ip), vehicle: Klucel (hydroxypropylcellulose) (HPC) 94 % of control | dose: 12.5 mg/kg/injection, schedule: Q01DX009 (ip), vehicle: Klucel (hydroxypropylcellulose) (HPC) 97 % of control | dose: 100.0 mg/kg/injection, schedule: Q04DX003 (sc), vehicle: olive oil, sesame oil, peanut oil 103 % of control | dose: 200.0 mg/kg/injection, schedule: Q04DX003 (sc), vehicle: olive oil, sesame oil, peanut oil 106 % of control

CCCCCCCC(=O)Nc1cccc(OC(=O)NC)c1
inactive: [10] 98 % of control | [11] 94 % of control | [12] 96 % of control

CC(C)=C(B1OC(C)(C)C(C)(C)O1)B1OC(C)(C)C(C)(C)O1
inactive: [4] 93 % of control | [5] 95 % of control | [6] 97 % of control

CCN=C(c1ccc(NC(=O)c2ccc(C(=O)Nc3ccc(C(=NCC)N(CC)C(=O)NCCCCl)cc3)cc2)cc1)N(CC)C(=O)NCCCCl
inactive: dose: 0.5 mg/kg/injection, schedule: Q01DX015 (ip), vehicle: methylcellulose (MC) 100 % of control | dose: 1.0 mg/kg/injection, schedule: Q01DX015 (ip), vehicle: methylcellulose (MC) 102 % of control | dose: 2.0 mg/kg/injection, schedule: Q01DX015 (ip), vehicle: methylcellulose (MC) 111 % of control

OCCOCC12c3ccccc3C3C(c4ccccc41)C32 (configuration not stated)
inactive: dose: 50.0 mg/kg/injection, schedule: Q04DX002 (ip), vehicle: saline with Tween-80 90 % of control | dose: 200.0 mg/kg/injection, schedule: Q04DX002 (ip), vehicle: saline with Tween-80 96 % of control

CC(=O)OC1CCC2(C)C(CCC3C4CC=C(C(C)=O)C4(C)CCC32)C1 (configuration not stated)
inactive: dose: 100.0 mg/kg/injection, schedule: Q01DX009 (sc), vehicle: steriod suspending solution 94 % of control | dose: 100.0 mg/kg/injection, schedule: Q04DX003 (sc), vehicle: steriod suspending solution 115 % of control | dose: 200.0 mg/kg/injection, schedule: Q01DX009 (sc), vehicle: steriod suspending solution 109 % of control | dose: 200.0 mg/kg/injection, schedule: Q04DX003 (sc), vehicle: steriod suspending solution 103 % of control | dose: 400.0 mg/kg/injection, schedule: Q01DX009 (sc), vehicle: steriod suspending solution 98 % of control | dose: 400.0 mg/kg/injection, schedule: Q04DX003 (sc), vehicle: steriod suspending solution 105 % of control

O=C1C(N2CCOCC2)=C(N2CC2)C(=O)C(N2CCOCC2)=C1N1CC1
inactive: dose: 0.19 mg/kg/injection, schedule: Q04DX003 (ip), vehicle: saline 92 % of control and 102 % of control | dose: 0.37 mg/kg/injection, schedule: Q04DX003 (ip), vehicle: saline 94 % of control and 107 % of control | dose: 0.75 mg/kg/injection, schedule: Q01DX009 (ip), vehicle: saline 105 % of control and 118 % of control | dose: 0.75 mg/kg/injection, schedule: Q04DX003 (ip), vehicle: saline 107 % of control and 113 % of control | dose: 1.5 mg/kg/injection, schedule: Q01DX009 (ip), vehicle: saline 120 % of control | dose: 1.5 mg/kg/injection, schedule: Q04DX003 (ip), vehicle: saline 105 % of control | dose: 3.0 mg/kg/injection, schedule: Q04DX003 (ip), vehicle: saline 122 % of control | dose: 3.12 mg/kg/injection, schedule: Q01DX001 (ip), vehicle: saline 86 % of control | dose: 12.0 mg/kg/injection, schedule: Q04DX003 (ip), vehicle: saline 115 % of control
